The results in this text go back to patent US9873719B2, “Salt and protease-resistance of antimicrobial peptide and the manufacture thereof” (priority 2013, dated 2018).

Square brackets hold non-standard residues; d marks the D form. Peptide text beside a SMILES is read from it. 2Nal = N[C@@H](Cc1ccc2ccccc2c1)C(=O)O

Data set [1] relates to Eschericha coli (ATCC 25922), Staphylococcus aureus (ATCC 25923, 29213, and 19636), and Pseudomonas aeruginosa (ATCC 27853 and 9027). Nature of the data set: Salt resistance test: antibacterial activity assay (NCCLS microdilution, MIC90). The format is cell-based. To be noted: for antimicrobial activity: at MHB medium or the high-salt condition, FIG. 1a/1b; for antimicrobial activity compared with reference peptide (S1 or S2-Nal): MHB medium or the high-salt condition, comparison in words; for antimicrobial activity at 300 mM NaCl: FIG. 1b. The source says:
Antibacterial activity assay was used to determine the antimicrobial activity of S1, Nal-S1, S1-Nal-Nal, S1-Nal-Nal-Nal, S1-W, S1-W-W, S1-K-K-K, S2-Nal, S2-F-Nal, S2-Nal-Nal at different salt concentration. Eschericha coli (ATCC 25922), Staphylococcus aureus (ATCC 25923, 29213, and 19636), and Pseudomonas aeruginosa (ATCC 27853 and 9027) were used in the Example.
Microdilution method of National Committee for Clinical Laboratory Standards (NCCLS) was used to determine the minimal inhibition concentration (MIC). The MIC as used herein is a minimum inhibitory concentration required to inhibit the growth of 90% of organisms (MIC90).
In the Microdilution method, 1 μl of peptide solution (5,000 μg/ml to 78.1 μg/ml) and 99 μl of bacteria suspension were mixed and added into 96 wells plates. After 16 hours of incubation at 37° C., the optical density (O.D.) value at 600 nm was detected by ELISA (Thermo Max, Molecular Devices, Sunnyvale, Calif.). The Muller-Hinton Broth (MHB) medium without peptide and bacterial suspension were used as negative control and positive control, separately. The MIC value means a minimum inhibitory concentration required to inhibit the growth (equal or more than 90%) of bacteria.
For orientation: Broth dilution looks for growth in wells or tubes with falling amounts of substance.

A short description of another data set: in vitro. The class given is in vitro ADME, bovine. How it is done: Serum stability of the peptides was determined in 25% (v/v) aqueous bovine calf serum (HyClone, cat. AUE-34962). Firstly, peptides were dissolved in serum at a concentration of 150 μg/mL and incubated at 37° C. After 45 min on ice for precipitating serum proteins, the serum was centrifuged at 12,000 g for 10 min at 4° C., and then the supernatants were lyophilized. Remaining amount of the peptides was determined by RP-HPLC.

Data set [2] has as its system human red blood cells (hRBCs).
Protocol: The hemolysis of peptides was determined by evaluating the effect of peptides on human red blood cells (hRBCs). hRBCs were obtained by washing the heparinized blood with PBS buffer three times, and stored at physiological saline with 10% phosphate buffer. The peptides were dissolved in PBS buffer, and then 50 μl of 10% (v/v) hRBCs was added to the PBS buffer at 37° C. for 1 hour of incubation (the final volume concentration of the hRBCs was 5%). After 1 hour of incubation, the hBRCs were centrifuged, and the hemolysis ratio was determined by detecting the absorbance values at 540 nm using a spectrophotometer. The hemolysis ratio of hRBCs without treatment was defined as 0%, and the hemolysis ratio of hRBCs treated with 1% Triton-X 100 was defined as 100%.

A word on the share remaining: it is the share of the starting amount still present when the sample was taken. A higher share remaining goes with greater stability.

Take `CC(=O)N[C@@H](CCCCN)C(=O)N[C@@H](CCCCN)C(=O)N[C@@H](Cc1ccc2ccccc2c1)C(=O)N[C@@H](CCCNC(=N)N)C(=O)N[C@@H](CCCCN)C(=O)N[C@@H](Cc1ccc2ccccc2c1)C(=O)N[C@@H](CC(C)C)C(=O)N[C@@H](C)C(=O)N[C@@H](CCCCN)C(=O)N[C@@H](CCCCN)C(N)=O` [Nal-S1, KK-Nal-RK-Nal-LAKK] (Ac-KK[2Nal]RK[2Nal]LAKK-NH2; C-terminus assumed): the antimicrobial activity result in data set [1] is “diminished”. For the same molecule, in the data set “in vitro”, the “degree of protection of the peptides from degradation in bovine calf serum (rank order)” value (“degree of protection of the peptides” below) was “S1-Nal-Nal-Nal>S2-Nal-Nal=S2-Nal>S1-Nal-Nal>S1-Nal>S2-F-Nal>S1-KKK>S1>Nal-S1=S1-W>S1-WW”.

As to `CC(=O)N[C@@H](CCCCN)C(=O)N[C@@H](CCCCN)C(=O)N[C@@H](Cc1c[nH]c2ccccc12)C(=O)N[C@@H](CCCNC(=N)N)C(=O)N[C@@H](CCCCN)C(=O)N[C@@H](Cc1c[nH]c2ccccc12)C(=O)N[C@@H](CC(C)C)C(=O)N[C@@H](C)C(=O)N[C@@H](CCCCN)C(=O)N[C@@H](CCCCN)C(=O)N[C@@H](Cc1ccc2ccccc2c1)C(N)=O` [Peptide S1-Nal, KKWRKWLAKK-Nal] (Ac-KKWRKWLAKK[2Nal]-NH2; C-terminus assumed), the “antimicrobial activity compared with reference peptide (S1 or S2-Nal)” value in data set [1] was “better than S1”. Moreover, the “degree of protection of the peptides” value in the data set “in vitro” was “S1-Nal-Nal-Nal>S2-Nal-Nal=S2-Nal>S1-Nal-Nal>S1-Nal>S2-F-Nal>S1-KKK>S1>Nal-S1=S1-W>S1-WW”.

Turning to `CC(=O)N[C@@H](CCCCN)C(=O)N[C@@H](CCCCN)C(=O)N[C@@H](Cc1c[nH]c2ccccc12)C(=O)N[C@@H](CCCNC(=N)N)C(=O)N[C@@H](CCCCN)C(=O)N[C@@H](Cc1c[nH]c2ccccc12)C(=O)N[C@@H](CC(C)C)C(=O)N[C@@H](C)C(=O)N[C@@H](CCCCN)C(=O)N[C@@H](CCCCN)C(=O)N[C@@H](Cc1ccc2ccccc2c1)C(=O)N[C@@H](Cc1ccc2ccccc2c1)C(N)=O` [Peptide S1-Nal-Nal, KKWRKWLAKK-Nal-Nal] (Ac-KKWRKWLAKK[2Nal][2Nal]-NH2; C-terminus assumed), in data set [1], the “antimicrobial activity compared with reference peptide (S1 or S2-Nal)” value is “better than S1” and the antimicrobial activity result is given as “still retained the antimicrobial activities”. Moreover, the “degree of protection of the peptides” value in “in vitro” was “S1-Nal-Nal-Nal>S2-Nal-Nal=S2-Nal>S1-Nal-Nal>S1-Nal>S2-F-Nal>S1-KKK>S1>Nal-S1=S1-W>S1-WW”. The “hemolytic activity compared with other peptides” value in data set [2] is reported as “higher hemolytic activity than other peptides”.

As for `CC(=O)N[C@@H](CCCCN)C(=O)N[C@@H](Cc1c[nH]c2ccccc12)C(=O)N[C@@H](Cc1c[nH]c2ccccc12)C(=O)N[C@@H](CCCCN)C(=O)N[C@@H](Cc1ccccc1)C(=O)N[C@@H](Cc1ccc2ccccc2c1)C(N)=O` [Peptide S2-F-Nal, KWWK-F-Nal] (Ac-KWWKF[2Nal]-NH2; C-terminus assumed), in data set [1], the “antimicrobial activity at 300 mM NaCl” value is “still retained their antimicrobial activities”, the “antimicrobial activity compared with reference peptide (S1 or S2-Nal)” value is on record as “higher than that of S2-Nal” and the antimicrobial activity entry is recorded as “diminished”. Also, the “degree of protection of the peptides” value in the data set “in vitro” was “S1-Nal-Nal-Nal>S2-Nal-Nal=S2-Nal>S1-Nal-Nal>S1-Nal>S2-F-Nal>S1-KKK>S1>Nal-S1=S1-W>S1-WW”.

On to `CC(=O)N[C@@H](CCCCN)C(=O)N[C@@H](Cc1c[nH]c2ccccc12)C(=O)N[C@@H](Cc1c[nH]c2ccccc12)C(=O)N[C@@H](CCCCN)C(=O)N[C@@H](Cc1ccc2ccccc2c1)C(N)=O` [Peptide S2-Nal, KWWK-Nal] (Ac-KWWK[2Nal]-NH2; C-terminus assumed), for which the antimicrobial activity result in data set [1] is “diminished”. Also, the “degree of protection of the peptides” value in “in vitro” is listed as “S1-Nal-Nal-Nal>S2-Nal-Nal=S2-Nal>S1-Nal-Nal>S1-Nal>S2-F-Nal>S1-KKK>S1>Nal-S1=S1-W>S1-WW”.

For `CC(=O)N[C@@H](CCCCN)C(=O)N[C@@H](Cc1c[nH]c2ccccc12)C(=O)N[C@@H](Cc1c[nH]c2ccccc12)C(=O)N[C@@H](CCCCN)C(=O)N[C@@H](Cc1ccc2ccccc2c1)C(=O)N[C@@H](Cc1ccc2ccccc2c1)C(N)=O` [Peptide S2-Nal-Nal, KWWK-Nal-Nal] (Ac-KWWK[2Nal][2Nal]-NH2; C-terminus assumed), in data set [1], the “antimicrobial activity at 300 mM NaCl” value is on record as “still retained their antimicrobial activities”, the “antimicrobial activity compared with reference peptide (S1 or S2-Nal)” value is recorded as “higher than that of S2-Nal” and the antimicrobial activity entry is given as “diminished”. For the same molecule, the “degree of protection of the peptides” value in the data set “in vitro” is on record as “S1-Nal-Nal-Nal>S2-Nal-Nal=S2-Nal>S1-Nal-Nal>S1-Nal>S2-F-Nal>S1-KKK>S1>Nal-S1=S1-W>S1-WW”.

For the molecule `CC(=O)N[C@@H](CCCCN)C(=O)N[C@@H](CCCCN)C(=O)N[C@@H](Cc1c[nH]c2ccccc12)C(=O)N[C@@H](CCCNC(=N)N)C(=O)N[C@@H](CCCCN)C(=O)N[C@@H](Cc1c[nH]c2ccccc12)C(=O)N[C@@H](CC(C)C)C(=O)N[C@@H](C)C(=O)N[C@@H](CCCCN)C(=O)N[C@@H](CCCCN)C(=O)N[C@@H](Cc1ccc2ccccc2c1)C(=O)N[C@@H](Cc1ccc2ccccc2c1)C(=O)N[C@@H](Cc1ccc2ccccc2c1)C(N)=O` [S1-Nal-Nal-Nal, KKWRKWLAKK-Nal-Nal-Nal] (Ac-KKWRKWLAKK[2Nal][2Nal][2Nal]-NH2; C-terminus assumed), in data set [1], the “antimicrobial activity compared with reference peptide (S1 or S2-Nal)” value was “better than S1” and the antimicrobial activity entry is “still retained the antimicrobial activities”. In addition, in the data set “in vitro”, the “degree of protection of the peptides” value is “S1-Nal-Nal-Nal>S2-Nal-Nal=S2-Nal>S1-Nal-Nal>S1-Nal>S2-F-Nal>S1-KKK>S1>Nal-S1=S1-W>S1-WW”. The amount remaining at 8 h, 150 μg/mL in the data set “in vitro” (bovine, serum) is approximately 100%. For the same molecule, the “hemolytic activity compared with other peptides” value in data set [2] is given as “higher hemolytic activity than other peptides”.

With “Ac-KKWRKWLAKK-NH2 [Peptide S1, Ac-KKWRKWLAKK-NH2]”, the antimicrobial activity entry in data set [1] is given as “diminished”. For the same molecule, the “degree of protection of the peptides” value in “in vitro” was “S1-Nal-Nal-Nal>S2-Nal-Nal=S2-Nal>S1-Nal-Nal>S1-Nal>S2-F-Nal>S1-KKK>S1>Nal-S1=S1-W>S1-WW”.

With “Ac-KKWRKWLAKKKKK-NH2 (C-terminus assumed) [Peptide S1-K-K-K, KKWRKWLAKKKKK]”, the antimicrobial activity result in data set [1] is on record as “diminished”. In “in vitro”, the “degree of protection of the peptides” value is “S1-Nal-Nal-Nal>S2-Nal-Nal=S2-Nal>S1-Nal-Nal>S1-Nal>S2-F-Nal>S1-KKK>S1>Nal-S1=S1-W>S1-WW”.

For “Ac-KKWRKWLAKKW-NH2 (C-terminus assumed) [Peptide S1-W, KKWRKWLAKKW]”, the antimicrobial activity result in data set [1] is “diminished”. Besides, the “degree of protection of the peptides” value in the data set “in vitro” is “S1-Nal-Nal-Nal>S2-Nal-Nal=S2-Nal>S1-Nal-Nal>S1-Nal>S2-F-Nal>S1-KKK>S1>Nal-S1=S1-W>S1-WW”.

“Ac-KKWRKWLAKKWW-NH2 (C-terminus assumed) [Peptide S1-W-W, KKWRKWLAKKWW]”: the antimicrobial activity result in data set [1] was “diminished”. The “degree of protection of the peptides” value in the data set “in vitro” is listed as “S1-Nal-Nal-Nal>S2-Nal-Nal=S2-Nal>S1-Nal-Nal>S1-Nal>S2-F-Nal>S1-KKK>S1>Nal-S1=S1-W>S1-WW”.
